# Test results reported in patent US7183320B2, “Benzoylsulfonamides and sulfonylbenzamidines for use as antitumour agents” (Eli Lilly and Company, priority 2002, dated 2007).
# What was measured:
# Format in all cases: in vivo
# [1] = system: MURINE COLON CARCINOMA-26; assay: Early stage murine colon carcinoma-26 (Table X); details: Balb/C female mice
# Source text: (§1) Conventional Murine Tumor and Human Tumor Xenouraft Assays
# Briefly, the murine tumor or human xenograph was implanted subcutaneously using either 12-gauge trocar implants or counted number of cells. The location for the trocar insertion is midway between the axillary and inguinal region along the side of the mouse. The trocar is slipped approximately ¾ of an inch subcutaneously up toward the axilla before discharging the tumor fragment, and pinching the skin as the trocar is removed., Alternatively, human tumor cells prepared from a […] of donor tumors (5×10^6 cells) were implanted subcutaneously in a hind-leg of a male or female nude mouse (Charles River). Either a test compound in vehicle or vehicle alone was administered by intravenous bolus injection (iv), intraperitoneal injection (ip), or oral gavage (po). Each treatment group, as well as a group of untreated control animals, consisted of five animals per group in each experiment. […] Body weights were taken as a general measure of toxicity. The subcutaneous tumor data were analyzed by determining the median tumor weight for each treatment group over the course of the experiment and calculating the tumor growth delay as the difference in days for the treatment versus the control tumors to reach a volume of either 500 or 1000 mm^3.
# (§2) The parameters measured in each experiment are summarized in the following paragraphs. • Tumor Weight(mg)=(a×b^2)/2 where a=tumor length (mm) and b=tumor width (mm). • Tumor Growth Delay=T−C where T is the median time (days) required for the treatment group tumors to reach a predetermined size, and C is the median time (days) for the control group tumors to reach the same size. Tumor-free survivors are excluded from this calculation, and are tabulated separately (Tumor Free).
# The median tumor weight of each group is determined (including zeros). The T/C value in percent is an indication of antitumor effectiveness.
# HUMAN BREAST WSU-Br-1 = assay: Upstaged human breast WSU-Br-1 xenograft (Table VIII); details: Balb/C SCID female mice
# Source text: as §1
# (§3) Inhibition of tumors transplanted into mice is an accepted procedure for studying the efficacy of antitumor agents (Corbett, et al., In vivo Methods for Screening and Preclinical Testing; Use of rodent solid tumors for drug discovery., In: Anticancer Drug Development Guide: Preclinical Screening, Clinical Trials, and Approval, B. Teicher (ed), Humana Press Inc., Totowa, N.J., Chapter 5, pages 75–99 (1997); (Corbett, et al., Int., J. Parmacog., 33, Supplement, 102–122 (1995)). Murine tumors or human xenographs were implanted essentially as described by Corbett in In vivo Methods for Screening and Preclimical Testing; Use of rodent solid tumors for drug discovery. Briefly, the murine tumor or human xenograph was implanted subcutaneously using either 12-gauge trocar implants or counted number of cells. The location for the trocar insertion is midway between the axillary and inguinal region along the side of the mouse. The trocar is slipped approximately ¾ of an inch subcutaneously up toward the axilla before discharging the tumor fragment, and pinching the skin as the trocar is removed., Alternatively, human tumor cells prepared from a […] of donor tumors (5×10^6 cells) were implanted subcutaneously in a hind-leg of a male or female nude mouse (Charles River). Either a test compound in vehicle or vehicle alone was administered by intravenous bolus injection (iv), intraperitoneal injection (ip), or oral gavage (po). Each treatment group, as well as a group of untreated control animals, consisted of five animals per group in each experiment. Subcutaneous tumor response was monitored by tumor volume measurement performed twice each week over the course of the experiment (60–120 days). Body weights were taken as a general measure of toxicity. The subcutaneous tumor data were analyzed by determining the median tumor weight for each treatment group over the course of the experiment and calculating the tumor growth delay as the difference in days for the treatment versus the control tumors to reach a volume of either 500 or 1000 mm^3.
# as §2, with “The compound of Example 110 was tested against a variety of murine and human tumors substantially as described supra. The” for “The”
# (§4) [formula] • where Tumor Growth Delay is as previously defined and Td is tumor volume doubling time (days), estimated from the best fit straight line from a log-linear growth plot of the control group of tumors in exponential growth (100–800 mg range) • % T/C mass—The treatment and control groups are measured when the control group tumors reach approximately 700 to 1200 mg in size (median group). The median tumor weight of each group is determined (including zeros). The T/C value in percent is an indication of antitumor effectiveness. A T/C≦42% is considered significant antitumor activity. A T/C<10% is considered to indicate highly significant antitumor activity. • Body Weight Loss Nadir—A body weight loss nadir (mean of group) of greater than 20% or drug deaths greater than 20% are considered to indicate an excessively toxic dosage in single course trials. • Activity Rating—the Activity Rating is derived from the Log Kill according to the following table: […]
# [2] = system: TAXOL SENSITIVE HUMAN COLON ADENOCARCINOMA #15/0; assay: Early stage taxol sensitive human colon adenocarcinoma #15/0 xenograft (Table V); details: total dose 420 mg/kg: 140 mg/kg/injection IV on days 3, 5, and 7; Balb/C SCID female mice
# Source text: as §1, §3
# as §2, with “The compound of Example 110 was tested against a variety of murine and human tumors substantially as described supra. The” for “The”
# as §4
# [3] = total dose 1305 mg/kg: 145 mg/kg/injection IV on days 1, 3, 5, 7, 9, 13, 15, 17, and 19
# [4] = total dose 1600 mg/kg: 100 mg/kg/injection IV BID on days 1, 3, 5, 7, 13, 15, 17, and 21
# [5] = total dose 1740 mg/kg: 145 mg/kg/injection IV on days 1, 2, 3, 7, 8, 13, 14, 16, 18, and 20–22
# [6] = total dose 500 mg/kg: 100 mg/kg/injection IV on days 11–13 and 19–20
# [7] = total dose 725 mg/kg: 145 mg/kg/injection IV on days 11–13 and 19–20
smiles,measurement,setting,value
"O=C(NS(=O)(=O)c1ccccc1)c1ccc(Cl)cc1Cl [Example 110, N-[2,4-dichlorobenzoyl]phenylsulfonamide]",% BODY WT LOSS AT NADIR,[1]; [3],+15%
same,% T/C MASS,[1]; [3],28%
same,ACTIVITY RATING,[1]; [3],+ (0.7–1.2)
same,DRUG DEATHS,[1]; [3],0/5
same,GROWTH DELAY,[1]; [3],6 days
same,LOG KILL,[1]; [3],0.9
same,TUMOR FREE AT DAY 31,[1]; [3],0/5
same,% BODY WT LOSS AT NADIR,[1]; [4],+15%
same,% T/C MASS,[1]; [4],34%
same,ACTIVITY RATING,[1]; [4],+++ (2.0–2.8)
same,DRUG DEATHS,[1]; [4],0/5
same,GROWTH DELAY,[1]; [4],15 days
same,LOG KILL,[1]; [4],2.2
same,TUMOR FREE AT DAY 31,[1]; [4],0/5
same,% BODY WT LOSS AT NADIR,[1]; [5],+17%
same,% T/C MASS,[1]; [5],34%
same,ACTIVITY RATING,[1]; [5],+++ (2.0–2.8)
same,DRUG DEATHS,[1]; [5],0/5
same,GROWTH DELAY,[1]; [5],14 days
same,LOG KILL,[1]; [5],2.1
same,TUMOR FREE AT DAY 31,[1]; [5],0/5
same,% BODY WT LOSS AT NADIR,HUMAN BREAST WSU-Br-1; [6],+14%
same,% T/C MASS,HUMAN BREAST WSU-Br-1; [6],0%
same,ACTIVITY RATING,HUMAN BREAST WSU-Br-1; [6],++++ (HIGHLY ACTIVE >2.8)
same,DRUG DEATHS,HUMAN BREAST WSU-Br-1; [6],0/5
same,GROWTH DELAY,HUMAN BREAST WSU-Br-1; [6],39 days
same,LOG KILL,HUMAN BREAST WSU-Br-1; [6],2.0
same,TUMOR FREE AT DAY 179,HUMAN BREAST WSU-Br-1; [6],2/5
same,% BODY WT LOSS AT NADIR,HUMAN BREAST WSU-Br-1; [7],+3.9%
same,% T/C MASS,HUMAN BREAST WSU-Br-1; [7],0%
same,ACTIVITY RATING,HUMAN BREAST WSU-Br-1; [7],++++ (HIGHLY ACTIVE >2.8)
same,DRUG DEATHS,HUMAN BREAST WSU-Br-1; [7],0/5
same,GROWTH DELAY,HUMAN BREAST WSU-Br-1; [7],57 days
same,LOG KILL,HUMAN BREAST WSU-Br-1; [7],2.9
same,TUMOR FREE AT DAY 179,HUMAN BREAST WSU-Br-1; [7],2/5
same,% BODY WT LOSS AT NADIR,[2],0%
same,% T/C MASS,[2],0%
same,ACTIVITY RATING,[2],++++ (HIGHLY ACTIVE >2.8)
same,DRUG DEATHS,[2],0/5
same,GROWTH DELAY,[2],33.5 days
same,LOG KILL,[2],5.0
same,TUMOR FREE AT DAY 151,[2],1/5
